Assay results reported in US20070191291A1, “Compound antibacterial drugs comprising n-acetyl-d-glucosamine” (priority 2003, published 2007).

Test system: E. coli
Test: Test Example 1: inducing E. coli CGC with N-acetyl-D-glucosamine and antibiotics in different ratios (K-B method, microscopy)
Type: cell-based

## CC(=O)N[C@@H]1[C@@H](O)[C@H](O)[C@@H](CO)O[C@H]1O [Compound (I), N-acetyl-D-glucosamine]
Compound (I) 150 mg, macrolide (spiramycin) 500 mg
  CGC formation: − (if cell length was not greater than 50 μm and cell number was within the range from 0 to 4 in each visual field, it was deemed as CGC negative and was marked with “−”)
Compound (I) 150 mg, macrolide (spiramycin) 700 mg
  CGC formation: − (if cell length was not greater than 50 μm and cell number was within the range from 0 to 4 in each visual field, it was deemed as CGC negative and was marked with “−”)
Compound (I) 150 mg, macrolide (spiramycin) 900 mg
  CGC formation: − (if cell length was not greater than 50 μm and cell number was within the range from 0 to 4 in each visual field, it was deemed as CGC negative and was marked with “−”)
Compound (I) 150 mg, macrolide (spiramycin) 1100 mg
  CGC formation: + (If cell length was more than 50 μm and cell number was more than 5 in each visual field, it was deemed as CGC positive and was marked with “+”)
Compound (I) 150 mg, macrolide (spiramycin) 1300 mg
  CGC formation: + (If cell length was more than 50 μm and cell number was more than 5 in each visual field, it was deemed as CGC positive and was marked with “+”)
Compound (I) 150 mg, macrolide (spiramycin) 1500 mg
  CGC formation: + (If cell length was more than 50 μm and cell number was more than 5 in each visual field, it was deemed as CGC positive and was marked with “+”)
Compound (I) 150 mg, quinoline (ciprofloxacin, norfloxacin) 150 mg
  CGC formation: − (if cell length was not greater than 50 μm and cell number was within the range from 0 to 4 in each visual field, it was deemed as CGC negative and was marked with “−”)
Compound (I) 150 mg, quinoline (ciprofloxacin, norfloxacin) 200 mg
  CGC formation: − (if cell length was not greater than 50 μm and cell number was within the range from 0 to 4 in each visual field, it was deemed as CGC negative and was marked with “−”)
Compound (I) 200 mg, aminoglycoside (kanamycin, gentamycin) 50 mg
  CGC formation: − (if cell length was not greater than 50 μm and cell number was within the range from 0 to 4 in each visual field, it was deemed as CGC negative and was marked with “−”)
Compound (I) 200 mg, aminoglycoside (kanamycin, gentamycin) 100 mg
  CGC formation: − (if cell length was not greater than 50 μm and cell number was within the range from 0 to 4 in each visual field, it was deemed as CGC negative and was marked with “−”)
Compound (I) 200 mg, aminoglycoside (kanamycin, gentamycin) 150 mg
  CGC formation: − (if cell length was not greater than 50 μm and cell number was within the range from 0 to 4 in each visual field, it was deemed as CGC negative and was marked with “−”)
Compound (I) 200 mg, aminoglycoside (kanamycin, gentamycin) 200 mg
  CGC formation: − (if cell length was not greater than 50 μm and cell number was within the range from 0 to 4 in each visual field, it was deemed as CGC negative and was marked with “−”)
Compound (I) 200 mg, aminoglycoside (kanamycin, gentamycin) 300 mg
  CGC formation: − (if cell length was not greater than 50 μm and cell number was within the range from 0 to 4 in each visual field, it was deemed as CGC negative and was marked with “−”)
Compound (I) 200 mg, aminoglycoside (kanamycin, gentamycin) 400 mg
  CGC formation: + (If cell length was more than 50 μm and cell number was more than 5 in each visual field, it was deemed as CGC positive and was marked with “+”)
Compound (I) 200 mg, aminoglycoside (kanamycin, gentamycin) 500 mg
  CGC formation: + (If cell length was more than 50 μm and cell number was more than 5 in each visual field, it was deemed as CGC positive and was marked with “+”)
Compound (I) 200 mg, macrolide (spiramycin) 300 mg
  CGC formation: − (if cell length was not greater than 50 μm and cell number was within the range from 0 to 4 in each visual field, it was deemed as CGC negative and was marked with “−”)
Compound (I) 200 mg, macrolide (spiramycin) 500 mg
  CGC formation: − (if cell length was not greater than 50 μm and cell number was within the range from 0 to 4 in each visual field, it was deemed as CGC negative and was marked with “−”)
Compound (I) 200 mg, macrolide (spiramycin) 700 mg
  CGC formation: − (if cell length was not greater than 50 μm and cell number was within the range from 0 to 4 in each visual field, it was deemed as CGC negative and was marked with “−”)
Compound (I) 200 mg, macrolide (spiramycin) 900 mg
  CGC formation: − (if cell length was not greater than 50 μm and cell number was within the range from 0 to 4 in each visual field, it was deemed as CGC negative and was marked with “−”)
Compound (I) 200 mg, macrolide (spiramycin) 1100 mg
  CGC formation: − (if cell length was not greater than 50 μm and cell number was within the range from 0 to 4 in each visual field, it was deemed as CGC negative and was marked with “−”)
Compound (I) 200 mg, macrolide (spiramycin) 1300 mg
  CGC formation: + (If cell length was more than 50 μm and cell number was more than 5 in each visual field, it was deemed as CGC positive and was marked with “+”)
Compound (I) 200 mg, macrolide (spiramycin) 1500 mg
  CGC formation: + (If cell length was more than 50 μm and cell number was more than 5 in each visual field, it was deemed as CGC positive and was marked with “+”)
Compound (I) 250 mg, aminoglycoside (kanamycin, gentamycin) 50 mg
  CGC formation: − (if cell length was not greater than 50 μm and cell number was within the range from 0 to 4 in each visual field, it was deemed as CGC negative and was marked with “−”)
Compound (I) 250 mg, aminoglycoside (kanamycin, gentamycin) 100 mg
  CGC formation: − (if cell length was not greater than 50 μm and cell number was within the range from 0 to 4 in each visual field, it was deemed as CGC negative and was marked with “−”)
Compound (I) 250 mg, aminoglycoside (kanamycin, gentamycin) 150 mg
  CGC formation: − (if cell length was not greater than 50 μm and cell number was within the range from 0 to 4 in each visual field, it was deemed as CGC negative and was marked with “−”)
Compound (I) 250 mg, aminoglycoside (kanamycin, gentamycin) 200 mg
  CGC formation: − (if cell length was not greater than 50 μm and cell number was within the range from 0 to 4 in each visual field, it was deemed as CGC negative and was marked with “−”)
Compound (I) 250 mg, aminoglycoside (kanamycin, gentamycin) 300 mg
  CGC formation: − (if cell length was not greater than 50 μm and cell number was within the range from 0 to 4 in each visual field, it was deemed as CGC negative and was marked with “−”)
Compound (I) 250 mg, aminoglycoside (kanamycin, gentamycin) 400 mg
  CGC formation: − (if cell length was not greater than 50 μm and cell number was within the range from 0 to 4 in each visual field, it was deemed as CGC negative and was marked with “−”)
Compound (I) 250 mg, aminoglycoside (kanamycin, gentamycin) 500 mg
  CGC formation: + (If cell length was more than 50 μm and cell number was more than 5 in each visual field, it was deemed as CGC positive and was marked with “+”)
Compound (I) 250 mg, macrolide (spiramycin) 300 mg
  CGC formation: − (if cell length was not greater than 50 μm and cell number was within the range from 0 to 4 in each visual field, it was deemed as CGC negative and was marked with “−”)
Compound (I) 250 mg, macrolide (spiramycin) 500 mg
  CGC formation: − (if cell length was not greater than 50 μm and cell number was within the range from 0 to 4 in each visual field, it was deemed as CGC negative and was marked with “−”)
Compound (I) 250 mg, macrolide (spiramycin) 700 mg
  CGC formation: − (if cell length was not greater than 50 μm and cell number was within the range from 0 to 4 in each visual field, it was deemed as CGC negative and was marked with “−”)
Compound (I) 250 mg, macrolide (spiramycin) 900 mg
  CGC formation: − (if cell length was not greater than 50 μm and cell number was within the range from 0 to 4 in each visual field, it was deemed as CGC negative and was marked with “−”)
Compound (I) 250 mg, macrolide (spiramycin) 1100 mg
  CGC formation: − (if cell length was not greater than 50 μm and cell number was within the range from 0 to 4 in each visual field, it was deemed as CGC negative and was marked with “−”)
Compound (I) 250 mg, macrolide (spiramycin) 1300 mg
  CGC formation: − (if cell length was not greater than 50 μm and cell number was within the range from 0 to 4 in each visual field, it was deemed as CGC negative and was marked with “−”)
Compound (I) 250 mg, macrolide (spiramycin) 1500 mg
  CGC formation: + (If cell length was more than 50 μm and cell number was more than 5 in each visual field, it was deemed as CGC positive and was marked with “+”)
Compound (I) 300 mg, aminoglycoside (kanamycin, gentamycin) 50 mg
  CGC formation: − (if cell length was not greater than 50 μm and cell number was within the range from 0 to 4 in each visual field, it was deemed as CGC negative and was marked with “−”)
Compound (I) 300 mg, aminoglycoside (kanamycin, gentamycin) 100 mg
  CGC formation: − (if cell length was not greater than 50 μm and cell number was within the range from 0 to 4 in each visual field, it was deemed as CGC negative and was marked with “−”)
Compound (I) 300 mg, aminoglycoside (kanamycin, gentamycin) 150 mg
  CGC formation: − (if cell length was not greater than 50 μm and cell number was within the range from 0 to 4 in each visual field, it was deemed as CGC negative and was marked with “−”)
Compound (I) 300 mg, aminoglycoside (kanamycin, gentamycin) 200 mg
  CGC formation: − (if cell length was not greater than 50 μm and cell number was within the range from 0 to 4 in each visual field, it was deemed as CGC negative and was marked with “−”)
Compound (I) 300 mg, aminoglycoside (kanamycin, gentamycin) 300 mg
  CGC formation: − (if cell length was not greater than 50 μm and cell number was within the range from 0 to 4 in each visual field, it was deemed as CGC negative and was marked with “−”)
Compound (I) 300 mg, aminoglycoside (kanamycin, gentamycin) 400 mg
  CGC formation: − (if cell length was not greater than 50 μm and cell number was within the range from 0 to 4 in each visual field, it was deemed as CGC negative and was marked with “−”)
Compound (I) 300 mg, aminoglycoside (kanamycin, gentamycin) 500 mg
  CGC formation: − (if cell length was not greater than 50 μm and cell number was within the range from 0 to 4 in each visual field, it was deemed as CGC negative and was marked with “−”)
Compound (I) 300 mg, macrolide (spiramycin) 300 mg
  CGC formation: − (if cell length was not greater than 50 μm and cell number was within the range from 0 to 4 in each visual field, it was deemed as CGC negative and was marked with “−”)
Compound (I) 300 mg, macrolide (spiramycin) 500 mg
  CGC formation: − (if cell length was not greater than 50 μm and cell number was within the range from 0 to 4 in each visual field, it was deemed as CGC negative and was marked with “−”)
Compound (I) 300 mg, macrolide (spiramycin) 700 mg
  CGC formation: − (if cell length was not greater than 50 μm and cell number was within the range from 0 to 4 in each visual field, it was deemed as CGC negative and was marked with “−”)
Compound (I) 300 mg, macrolide (spiramycin) 900 mg
  CGC formation: − (if cell length was not greater than 50 μm and cell number was within the range from 0 to 4 in each visual field, it was deemed as CGC negative and was marked with “−”)
Compound (I) 300 mg, macrolide (spiramycin) 1100 mg
  CGC formation: − (if cell length was not greater than 50 μm and cell number was within the range from 0 to 4 in each visual field, it was deemed as CGC negative and was marked with “−”)
Compound (I) 300 mg, macrolide (spiramycin) 1300 mg
  CGC formation: − (if cell length was not greater than 50 μm and cell number was within the range from 0 to 4 in each visual field, it was deemed as CGC negative and was marked with “−”)
Compound (I) 300 mg, macrolide (spiramycin) 1500 mg
  CGC formation: − (if cell length was not greater than 50 μm and cell number was within the range from 0 to 4 in each visual field, it was deemed as CGC negative and was marked with “−”)
